ChEMBL document CHEMBL1136837, “Unified QSAR approach to antimicrobials. 4. Multi-target QSAR modeling and comparative multi-distance study of the giant components of antiviral drug-drug complex networks” (Bioorg Med Chem, 2009)
Starred links: 1 amine or outer side, 2 acyl side, 3 side chain; linkers in the order of their positions; H or OH if unused. Non-standard residues stand in square brackets, D forms with d. Residues, ends and D or L forms follow the SMILES beside them. *: point of attachment. NH(1S-phenylpropyl) = CC[C@H](N*)c1ccccc1; NH(1R-phenylethyl) = C[C@@H](N*)c1ccccc1; Dip = N[C@H](C(=O)O)C(c1ccccc1)c1ccccc1; CH2(1-naphthyl) = c1ccc2c(C*)cccc2c1; Hyp = O=C(O)[C@@H]1C[C@@H](O)CN1; X8 = CCCN(N*)C(=O)NN(C)c1ccccc1; azaNva = CCCN(N[*:1])C(=O)[*:2]; Cha = N[C@@H](CC1CCCCC1)C(=O)O; Chg = N[C@H](C(=O)O)C1CCCCC1; NHPhenethyl = c1ccc(CCN*)cc1; X3 = C[C@H](N*)c1ccc(Br)cc1; X7 = C[C@H](N*)C1CCCCC1; Ac3c = NC1(C(=O)O)CC1; NHBn = c1ccc(CN*)cc1; Bn = c1ccc(C*)cc1

Legend:
[1] = tested on: Hepatitis C virus; assay: Antiviral activity against Hepatitis C virus; assay type: functional, organism-based, Hepacivirus hominis; details: Hepatitis C virus
[2] = tested on: Human immunodeficiency virus 1; assay: Antiviral activity against HIV1; assay type: functional, organism-based

SMILES | IC50 [1] | IC50 [2]
O=C(O)[C@H](Cc1ccccc1)N(Cc1cccc(F)c1)C(=O)c1ccc(Cl)cc1Cl | 3.2 µM | 
CCc1ccc(Cl)c2[nH]c3c(c12)CCOC3(CC)CC(=O)O (configuration not stated) | 30 µM | 
CC(C)(C)C(=O)CC(=O)C(=O)O | 50 µM | 
CCCC1(CC(=O)OCC)OCCc2c1[nH]c1c(C)ccc(C#N)c21 (configuration not stated) | 30 µM | 
CCCC1(CC(=O)O)OCCc2c1[nH]c1c(F)ccc(C#N)c21 (single isomer, unassigned) | 5.2 µM | 
CCCC1(CC(=O)O)OCCc2c1[nH]c1c(C)ccc(C#N)c21 (configuration not stated) | 0.57 µM | 
CCCN(NC(=O)[C@@H]1C[C@@H](OCc2ccccc2)CN1C(=O)[C@@H](NC(=O)[C@@H](NC(=O)[C@@H](CCC(=O)O)NC(=O)[C@H](CC(=O)O)NC(C)=O)[C@@H](C)CC)C(C)C)C(=O)N[C@H](C)c1ccccc1 (Ac-D[dE]IV[Hyp](Bn)[azaNva]-{NH(1R-phenylethyl)}) | 4.3 µM | 
CCC[C@@]1(CC(=O)O)OCCc2c1[nH]c1c(C)cc(F)c(C#N)c21 | 0.63 µM | 
CCC[C@@]1(CC(=O)O)OCCc2c1[nH]c1c(C)ccc(C#N)c21 | 2.4 µM | 
C[C@@]1(O)[C@H](O)[C@@H](CO)O[C@H]1n1ccc2c(N)nc(F)nc21 | 100 µM | 
C[C@@]1(O)[C@H](O)[C@@H](CO)O[C@H]1n1ncc2c(N)ncnc21 | 100 µM | 
N#Cc1ccc(CN(C(=O)c2ccc(Cl)cc2Cl)[C@@H](Cc2ccccc2)C(=O)O)cc1 | 8 µM | 
O=C(CC(=O)C(=O)O)Cc1ccncc1 | 50 µM | 
O=C(O)[C@H](Cc1ccccc1)N(Cc1ccc(-c2cc3ccccc3o2)s1)C(=O)c1ccc(Cl)cc1Cl | 8.6 µM | 
CCCC1(CC(=O)O)OCCc2c1[nH]c1c(C)cc(F)c(C#N)c21 (configuration not stated) | 0.12 µM | 
Cc1ccc(C(=O)CC(=O)C(=O)O)cc1 | 50 µM | 
O=C(/C=C(\O)c1nnn[nH]1)c1c[nH]c2ccc(F)cc12 |  | 1.8 µM
OC[C@H]1C=C(F)[C@@H](n2cnc3c(O)ncnc32)S1 |  | 15.5 µM
Cc1c(CBr)c(=O)oc2c3c(ccc12)OC(C)(C)[C@H](OC(=O)[C@@]12CC[C@](C)(C(=O)O1)C2(C)C)[C@@H]3OC(=O)[C@@]12CC[C@](C)(C(=O)O1)C2(C)C |  | 20.9 µM

SMILES | IC50 [1] | IC50 [2]
Nc1ccn([C@@H]2CC(F)(F)[C@H](CO)O2)c(=O)n1 |  | 11.5 µM
COC(=O)C(=O)CC(=O)c1cn(C)c2cc3c(cc12)OCO3 |  | 31 µM
O=C(c1cccc(Cc2ccccc2)c1)c1ncc2cccnc2c1O |  | 0.04 µM
Nc1ncnc2c1ncn2C1C=CC(OCP(=O)(O)OP(=O)(O)OP(=O)(O)OP(=O)(O)COC2C=CC(n3cnc4c(N)ncnc43)C2)C1 (configuration not stated) |  | 2 µM
C=C(C)[C@@H]1CC[C@]2(C(=O)NCCCCCCCCCCC(=O)O)CC[C@]3(C)[C@H](CC[C@@H]4[C@@]5(C)CC[C@H](O)C(C)(C)[C@@H]5CC[C@]43C)[C@@H]12 |  | 0.7 µM
O=Cc1cccc2c1nc(-c1c(F)cccc1F)n2Cc1c(F)cccc1F |  | 0.1 µM
CCOC(=O)c1cc2ccc(Cl)cc2n1S(=O)(=O)c1ccc(Cl)cc1 |  | 200 µM
O=C(O)/C(O)=C/C(=O)c1ccnc2ccccc12 |  | 100 µM
CC(=O)c1c(Cl)n([C@H]2C[C@H](O)[C@@H](CO)O2)c2cc(Cl)c(Cl)cc12 |  | 8 µM
NC(=O)c1[nH]c2ccc(Cl)cc2c1S(=O)(=O)c1cc(Cl)ccc1N |  | 0.3 µM
[N-]=[N+]=NC[C@H]1O[C@@H](n2c(Cl)c(C=O)c3cc(Cl)c(Cl)cc32)[C@H](O)[C@@H]1O |  | 10 µM
O=C(OC(C(=O)O)C(OC(=O)c1cccs1)C(=O)O)c1cccs1 (configuration not stated) |  | 10 µM
Cc1ccc(S(=O)(=O)c2c(C(N)=O)[nH]c3ccc(Cl)cc23)c(C)c1 |  | 0.004 µM
C#C[C@@]1(CO)C=C[C@H](n2cc(C)c(=O)[nH]c2=O)O1 [CENSAVUDINE] |  | 0.25 µM
Cc1cn([C@@H]2S[C@H](CO)C=C2F)c(=O)nc1O |  | 92.3 µM
O=C(OC(C(=O)O)C(OC(=O)c1ccsc1)C(=O)O)c1ccsc1 (configuration not stated) |  | 10 µM
Cc1cn([C@H]2C=C(F)[C@H](CO)O2)c(=O)nc1O |  | 100 µM
Cc1ccnc(N2C(=O)CSC2c2c(F)cccc2Cl)c1 (configuration not stated) |  | 0.099 µM

Results, then the molecule that gave them:

IC50 [1] | IC50 [2] | SMILES
0.0048 µM |  | COc1ccc2c(O[C@@H]3C[C@H]4C(=O)N[C@]5(C(=O)O)C[C@H]5/C=C\CCCCC[C@H](NC(=O)OC(C)(C)C)C(=O)N4C3)cc(-c3csc(NC(C)=O)n3)nc2c1
0.0064 µM |  | CNc1nc(-c2cc(O[C@@H]3C[C@H]4C(=O)N[C@]5(C(=O)O)C[C@H]5/C=C\CCCCC[C@H](NC(=O)OC(C)(C)C)C(=O)N4C3)c3ccc(OC)cc3n2)cs1
640 µM |  | CC(=O)N[C@H](C(=O)N[C@H](C(=O)N1C[C@H](OCc2cccc3ccccc23)C[C@H]1C(=O)N[C@@]1(C(=O)O)C[C@@H]1C(C)C)C(C)C)C1CCCCC1
4 µM |  | CC(=O)N[C@H](C(=O)N[C@H](C(=O)N1C[C@H](Oc2cccc(-c3cccc([N+](=O)[O-])c3)c2)C[C@H]1C(=O)NC1(C(=O)O)CC1)C(C)C)C1CCCCC1
0.007 µM |  | CC(=O)N[C@@H](CC(=O)O)C(=O)N[C@@H](CCC(=O)O)C(=O)N[C@H](C(=O)N[C@@H](CCC(=O)O)C(=O)N[C@@H](CC1CCCCC1)C(=O)N[C@@H](CS)C(=O)NCCc1ccccc1)C(c1ccccc1)c1ccccc1 (Ac-DE[Dip]E[Cha]C-NHPhenethyl)
0.12 µM |  | CC[C@@H]1C[C@]1(NC(=O)[C@@H]1C[C@@H](Oc2cccc(-c3ccccc3)c2)CN1C(=O)[C@@H](NC(=O)[C@@H](NC(C)=O)C1CCCCC1)C(C)C)C(=O)O
1.4 µM |  | O=C(O)[C@H](Cc1ccccc1)N(Cc1cccc(Cl)c1)C(=O)c1ccc(Cl)cc1Cl
4 µM |  | CC(=O)N[C@H](C(=O)N[C@H](C(=O)N1C[C@H](OCc2cccc3ccccc23)C[C@H]1C(=O)NC1(C(=O)O)CC1)C(C)C)C1CCCCC1 (Ac-[Chg]V[Hyp](CH2(1-naphthyl))[Ac3c]-OH)
2 µM |  | CC(C)COC(=O)N[C@@H](CCC(=O)O)C(=O)N[C@@H](CC(C)C)C(=O)N[C@@H](CS)C(=O)NCCc1ccc(C(=O)O)cc1
0.48 µM |  | CCCN(NC(=O)[C@@H]1C[C@@H](OCc2ccccc2)CN1C(=O)[C@@H](NC(=O)[C@@H](NC(=O)[C@@H](CCC(=O)O)NC(=O)[C@H](CC(=O)O)NC(C)=O)[C@@H](C)CC)C(C)C)C(=O)NN(C)c1ccccc1 (Ac-D[dE]IV[Hyp](Bn)-X8)
0.0014 µM |  | COc1ccc2c(O[C@@H]3C[C@H]4C(=O)N[C@]5(C(=O)O)C[C@H]5/C=C\CCCCC[C@H](NC(=O)N[C@H](C)C(C)(C)C)C(=O)N4C3)cc(-c3csc(NC(C)=O)n3)nc2c1
0.44 µM |  | CCCN(NC(=O)[C@@H]1C[C@@H](OCc2ccccc2)CN1C(=O)[C@@H](NC(=O)[C@@H](NC(=O)[C@@H](CCC(=O)O)NC(=O)[C@H](CC(=O)O)NC(C)=O)[C@@H](C)CC)C(C)C)C(=O)N[C@@H](CC)c1ccccc1 (Ac-D[dE]IV[Hyp](Bn)[azaNva]-{NH(1S-phenylpropyl)})
0.42 µM |  | CCCN(NC(=O)[C@@H]1C[C@@H](OCc2ccccc2)CN1C(=O)[C@@H](NC(=O)[C@@H](NC(=O)[C@@H](CCC(=O)O)NC(=O)[C@H](CC(=O)O)NC(C)=O)[C@@H](C)CC)C(C)C)C(=O)N[C@@H](C)C1CCCCC1 (Ac-D[dE]IV[Hyp](Bn)[azaNva]-X7)
180 µM |  | CC(=O)N[C@H](C(=O)N[C@H](C(=O)N1C[C@H](OCc2cccc3ccccc23)C[C@H]1C(=O)N[C@@]1(C(=O)O)C[C@@H]1C)C(C)C)C1CCCCC1
90 µM |  | CC(=O)N[C@H](C(=O)N[C@H](C(=O)N1C[C@H](OCc2cccc3ccccc23)C[C@H]1C(=O)N[C@@]1(C(=O)O)C[C@@H]1CCc1ccccc1)C(C)C)C1CCCCC1
52 µM |  | CC(=O)N[C@H](C(=O)N[C@H](C(=O)N1C[C@H](Oc2cccc(Br)c2)C[C@H]1C(=O)NC1(C(=O)O)CC1)C(C)C)C1CCCCC1
19 µM |  | CC(C)COC(=O)N[C@@H](CCC(=O)O)C(=O)N[C@@H](CC(C)C)C(=O)N[C@@H](CS)C(=O)NCCc1ccccc1
0.072 µM |  | CCCN(NC(=O)[C@@H]1C[C@@H](OCc2ccccc2)CN1C(=O)[C@@H](NC(=O)[C@@H](NC(=O)[C@@H](CCC(=O)O)NC(=O)[C@H](CC(=O)O)NC(C)=O)[C@@H](C)CC)C(C)C)C(=O)N[C@@H](C)c1ccc(Br)cc1 (Ac-D[dE]IV[Hyp](Bn)[azaNva]-X3)

IC50 [1] | IC50 [2] | SMILES
6 µM |  | N#Cc1ccccc1CN(C(=O)c1ccc(Cl)cc1Cl)[C@@H](Cc1ccccc1)C(=O)O
81 µM |  | CC(=O)N[C@H](C(=O)N[C@H](C(=O)N1C[C@H](OCc2cccc3ccccc23)C[C@H]1C(=O)N[C@@]1(C(=O)O)C[C@@H]1Cc1ccccc1)C(C)C)C1CCCCC1
54 µM |  | COC(=O)c1ccccc1CCNC(=O)[C@H](CS)NC(=O)[C@H](CC(C)C)NC(=O)[C@H](CCC(=O)O)NC(=O)OCC(C)C
0.23 µM |  | N#Cc1ccccc1COc1cccc(C(=O)/C=C(\O)C(=O)O)c1
3.5 µM |  | O=C(O)[C@H](Cc1ccccc1)N(Cc1cccc(Br)c1)C(=O)c1ccc(Cl)cc1Cl
0.0025 µM |  | CNc1nc(-c2cc(O[C@@H]3C[C@H]4C(=O)N[C@]5(C(=O)O)C[C@H]5/C=C\CCCCC[C@H](NC(=O)OC5CCCC5)C(=O)N4C3)c3ccc(OC)cc3n2)cs1
50 µM |  | COC(=O)C(=O)CC(=O)c1ccccc1
0.11 µM |  | N#Cc1c(Cl)cccc1COc1cccc(C(=O)/C=C(\O)C(=O)O)c1
0.0035 µM |  | COc1ccc2c(O[C@@H]3C[C@H]4C(=O)N[C@]5(C(=O)O)C[C@H]5/C=C\CCCCC[C@H](NC(=O)OC5CCCC5)C(=O)N4C3)cc(-c3csc(N)n3)nc2c1
5.7 µM |  | O=C(O)C(=O)CC(=O)c1ccccc1
0.25 µM |  | CC(=O)N[C@@H](CC(=O)O)C(=O)N[C@@H](CCC(=O)O)C(=O)N[C@H](C(=O)N[C@@H](CCC(=O)O)C(=O)N[C@@H](CC1CCCCC1)C(=O)N[C@@H](CS)C(=O)NCc1ccccc1)C(c1ccccc1)c1ccccc1 (Ac-DE[Dip]E[Cha]C-NHBn)
0.0047 µM |  | COc1ccc2c(O[C@@H]3C[C@H]4C(=O)N[C@]5(C(=O)O)C[C@H]5/C=C\CCCCC[C@H](NC(=O)OC(C)(C)C)C(=O)N4C3)cc(-n3ccnc3)nc2c1
 | 0.0064 µM | CCO/N=C(\c1ccc(Br)cc1)C1CCN(C2(C)CCN(C(=O)c3c(C)cc(C)nc3O)CC2)CC1
 | 15.1 µM | COC(=O)c1[nH]c(-c2ccc3c(n2)C(=O)C(NC(C)=O)=CC3=O)c2nc3ccccc3c-2c1C
 | 0.01 µM | NNC(=O)c1[nH]c2ccc(Cl)cc2c1S(=O)(=O)c1ccccc1
 | 200 µM | CCOC(=O)c1cc2ccccc2n1S(=O)(=O)c1ccccc1
 | 0.035 µM | Cc1c(C(C)c2c(F)cccc2F)nc(NC2CCCC2)[nH]c1=O (configuration not stated)
